Test results reported in ChEMBL document CHEMBL4706559, “New indolylarylsulfone non-nucleoside reverse transcriptase inhibitors show low nanomolar inhibition of single and double HIV-1 mutant strains” (Eur J Med Chem, 2020).

How the values were obtained:
[1] = system: Human immunodeficiency virus 1; test: Inhibition of HIV1 p66/p51 reverse transcriptase K103N/Y181C double mutant assessed as apparent Vmax at 75 nM using 10 to 500 uM poly(rA)/oligo(dT) as templates in presence of fixed concentration of [3H]dTTP by Michaelis-Menten analysis (reference value: 12 +/- 1%)
[2] = system: Human immunodeficiency virus 1; test: Inhibition of HIV1 p66/p51 reverse transcriptase K103N/Y181C double mutant assessed as apparent Vmax at 75 nM using fixed concentration of poly(rA)/oligo(dT) as templates in presence of 2 to 100 uM of [3H]dTTP by Michaelis-Menten analysis (reference value: 9.6 +/- 0.4%)
[3] = system: Human immunodeficiency virus 1; test: Inhibition of HIV1 p66/p51 reverse transcriptase K103N/Y181C double mutant assessed as apparent Km of substrate at 300 nM using fixed concentration of poly(rA)/oligo(dT) as templates in presence of 2 to 100 uM of [3H]dTTP by Michaelis-Menten analysis (reference value: 9.2 +/- 1.4 uM)
[4] = system: Human immunodeficiency virus 1; test: Synergistic inhibition of wild type HIV-1 p66/p51 reverse transcriptase assessed as combination index using poly(rA)/oligo(dT) as templates in presence of [3H]dTTP preincubated enzyme with nucleic acid followed by addition of AZTTP and subsequent incubation with compound and dTTP
[5] = Binding affinity to HIV-1 p66/p51 reverse transcriptase K103N/Y181C double mutant/nucleic acid binary complex using poly(rA)/oligo(dT) as templates in presence of [3H]dTTP; design: species or system Human immunodeficiency virus 1
[6] = Inhibition of RNA-dependent DNA polymerase activity of recombinant HIV-1 p66/p51 reverse transcriptase Y188L mutant assessed as inhibition of [3H]dTTP incorporation using poly(rA)/oligo(dT) as templates incubated for 15 mins by MicroBeta scintillation counting method; design: species or system Human immunodeficiency virus 1
[7] = target: Human immunodeficiency virus type 1 reverse transcriptase (Human immunodeficiency virus 1) (UniProt Q72547); test: Inhibition of wild type HIV1 p66/p51 reverse transcriptase assessed as apparent Vmax at 225 nM using fixed concentration of poly(rA)/oligo(dT) as templates in presence of 2 to 100 uM of [3H]dTTP by Michaelis-Menten analysis (reference value: 9.7 +/- 12%)
[8] = target: Human immunodeficiency virus type 1 reverse transcriptase (Human immunodeficiency virus 1) (UniProt Q72547); test: Inhibition of wild type HIV1 p66/p51 reverse transcriptase assessed as apparent Vmax at 75 nM using 10 to 500 uM poly(rA)/oligo(dT) as templates in presence of fixed concentration of [3H]dTTP by Michaelis-Menten analysis (reference value: 10 +/- 0.5%)
[9] = Inhibition of RNA-dependent DNA polymerase activity of recombinant HIV-1 p66/p51 reverse transcriptase K103N/Y181C mutant assessed as inhibition of [3H]dTTP incorporation using poly(rA)/oligo(dT) as templates incubated for 15 mins by MicroBeta scintillation counting method; design: species or system Human immunodeficiency virus 1
[10] = Cytotoxicity against human MT-4 cells assessed as reduction in cell viability by MTT assay; type: cell-based, MT4
[11] = system: Human immunodeficiency virus 1; test: Inhibition of HIV1 p66/p51 reverse transcriptase K103N/Y181C double mutant assessed as apparent Vmax at 300 nM using 10 to 500 uM poly(rA)/oligo(dT) as templates in presence of fixed concentration of [3H]dTTP by Michaelis-Menten analysis (reference value: 12 +/- 1%)
[12] = Selectivity ratio of CC50 for human MT4 cells to EC50 for antiviral activity against HIV-1 NL4-3 infected in human MT4 cells; type: toxicity, cell-based; conditions: read-out: Ratio CC50/EC50
[13] = target: T1, Human immunodeficiency virus type 1 reverse transcriptase (Human immunodeficiency virus 1, UniProt Q72547); test: Inhibition of RNA-dependent DNA polymerase activity of wild type recombinant HIV-1 His-tagged p66/p51 reverse transcriptase assessed as inhibition of [3H]dTTP incorporation using poly(rA)/oligo(dT) as templates incubated for 15 mins by MicroBeta scintillation counting method
[14] = target: Human immunodeficiency virus type 1 reverse transcriptase (Human immunodeficiency virus 1) (UniProt Q72547); test: Binding affinity to wild type HIV-1 p66/p51 reverse transcriptase/nucleic acid/dTTP ternary complex assessed as association constant using poly(rA)/oligo(dT) as templates in presence of [3H]dTTP
[15] = system: Human immunodeficiency virus 1; test: Inhibition of HIV1 p66/p51 reverse transcriptase K103N/Y181C double mutant assessed as apparent Vmax at 150 nM using fixed concentration of poly(rA)/oligo(dT) as templates in presence of 2 to 100 uM of [3H]dTTP by Michaelis-Menten analysis (reference value: 9.6 +/- 0.4%)
[16] = system: Human immunodeficiency virus 1; test: Inhibition of HIV1 p66/p51 reverse transcriptase K103N/Y181C double mutant assessed as apparent Km of substrate at 75 nM using fixed concentration of poly(rA)/oligo(dT) as templates in presence of 2 to 100 uM of [3H]dTTP by Michaelis-Menten analysis (reference value: 9.2 +/- 1.4 uM)
[17] = target: Human immunodeficiency virus type 1 reverse transcriptase (Human immunodeficiency virus 1) (UniProt Q72547); test: Synergistic inhibition of wild type HIV-1 p66/p51 reverse transcriptase assessed as combination index using poly(rA)/oligo(dT) as templates in presence of [3H]dTTP preincubated with enzyme and AZTTP followed by substrate addition
[18] = system: Human immunodeficiency virus 1; test: Synergistic inhibition of HIV-1 p66/p51 reverse transcriptase K103N/Y181C double mutant assessed as combination index using poly(rA)/oligo(dT) as templates in presence of [3H]dTTP preincubated with enzyme and AZTTP followed by substrate addition; type: functional
[19] = system: Human immunodeficiency virus 1; test: Ratio of Koff of HIV-1 p66/p51 reverse transcriptase K103N/Y181C double mutant/nucleic acid/dTTP ternary complex to Koff of free form of HIV-1 p66/p51 reverse transcriptase using poly(rA)/oligo(dT) as templates in presence of [3H]dTTP
[20] = system: Human immunodeficiency virus 1; test: Inhibition of HIV1 p66/p51 reverse transcriptase K103N/Y181C double mutant assessed as apparent Km of substrate at 150 nM using […] as templates in presence of fixed concentration of [3H]dTTP by Michaelis-Menten analysis (reference value: 106+/- 16 nM)
[21] = system: Human immunodeficiency virus 1; test: Ratio of Kon of HIV-1 p66/p51 reverse transcriptase K103N/Y181C double mutant/nucleic acid/dTTP ternary complex to Kon of free form of HIV-1 p66/p51 reverse transcriptase using poly(rA)/oligo(dT) as templates in presence of [3H]dTTP
[22] = system: Human immunodeficiency virus 1; test: Ratio of Koff of HIV-1 p66/p51 reverse transcriptase K103N/Y181C double mutant/nucleic acid/dTTP ternary complex to Koff of HIV-1 p66/p51 reverse transcriptase/nucleic acid binary complex using poly(rA)/oligo(dT) as templates in presence of [3H]dTTP
[23] = target: T1, Human immunodeficiency virus type 1 reverse transcriptase; test: Binding affinity to free form of wild type HIV-1 p66/p51 reverse transcriptase using poly(rA)/oligo(dT) as templates in presence of [3H]dTTP

Cc1cc(C)cc(S(=O)(=O)c2c(C(=O)NCc3ccccc3O)[nH]c3ccc(Cl)cc23)c1
Vmax(app) [1]: 7.7%
Vmax(app) [2]: 6.2%
Km [3]: 1.9 µM
CI [4]: 0.75
Ki [5]: 0.086 µM
IC50 [6]: 0.061 µM
Vmax(app) [7]: 0.9%
Vmax(app) [8]: 3.3%
IC50 [9]: 0.076 µM
CC50 [10]: 23.8 µM
Vmax(app) [11]: 3.2%
selectivity ratio [12]: > 39700
IC50 [13]: 0.083 µM
K [14]: 15 10^-5/nM/s
Vmax(app) [15]: 2.9%
Km [16]: 5.8 µM
CI [17]: 1.15
CI [18]: 0.81
Ratio [19]: 4
Km [20]: 0.125 µM
Ratio [21]: 4
Ratio [22]: 4
Ki [23]: 0.031 µM
